Results reported in patent publication US11866430B2, “Naphthyridinone compounds useful as T cell activators” (priority 2018, dated 2024).
pIC50: −log10 of the molar value. Where two headings read alike, the source gives them in different places.

Experiments:
human DGKα = human DGKα (Homo sapiens (Human), UniProt P23743); assay: biochemical; conditions: detergent/lipid micelle substrate; read-out: DGKα IC50
Description: (§1) The DGKα and DGKζ reactions were performed using either extruded liposome (DGKα and DGKζ LIPGLO assays) or detergent/lipid micelle substrate (DGKα and DGKζ assays). The reactions were carried out in 50 mM MOPS pH 7.5, 100 mM NaCl, 10 mM MgCl2, 1 μM CaCl2, and 1 mM DTT (assay buffer). The reactions using a detergent/lipid micelle substrate also contained 50 mM octyl B-D-glucopyranoside. […] The lipid substrate concentrations were […], 0.25 mM DAG, and 2.75 mM PC for the extruded liposome reactions.
(§2) The compound inhibition studies were carried out as follows: 50 nL droplets of each test compound (top concentration 10 mM with 11 point, 3-fold dilution series for each compound) solubilized in DMSO were transferred to wells of a white 1536 well plate (Corning 3725). A 5 mL enzyme/substrate solution at 2× final reaction concentration was prepared by combining 2.5 mL 4× enzyme solution (20 nM DGKα or DGKζ (prepared as described below) in assay buffer) and 2.5 mL of either 4× liposome or 4× detergent/lipid micelle solution (compositions described below) and incubated at room temperature for 10 minutes. Next, 1 μL 2× enzyme/substrate solution was added to wells containing the test compound and reactions were initiated with the addition of 1 μL 300 uM ATP. The reactions were allowed to proceed for 1 hr, after which 2 μL Glo Reagent (Promega V9101) was added and incubated for 40 minutes. Next, 4 μL Kinase Detection Reagent was added and incubated for 30 minutes. Luminescence was recorded using an EnVision microplate reader. […] The compounds were evaluated at 11 concentrations to determine IC50.
(§3) The detergent/lipid micelle was prepared by combining 15 g phosphatidylserine (Avanti 840035P) and 1 g diacylglycerol (800811O) and dissolving into 150 mL chloroform in a 2 L round bottom flask. Chloroform was removed under high vacuum by rotary evaporation. The resulting colorless, tacky oil was resuspended in 400 mL 50 mM MOPS pH 7.5, 100 mM NaCl, 20 mM NaF, 10 mM MgCl2, 1 μM CaCl2), 1 mM DTT, and 200 mM octyl glucoside by vigorous mixing. The lipid/detergent solution was split into 5 mL aliquots and stored at −80° C.
(§4) Human DGK-alpha-TVMV-His-pFBgate and human DCK-zeta-transcript variant-2-TVMV-His-pFBgate baculovirus samples were generated using the Bac-to-Bac baculovirus expression system (Invitrogen) according to the manufacturer's protocol. The DNA used for expression of DGK-alpha and DGK-zeta have SEQ ID NOs: 1 and 3, respectively. Baculovirus amplification was achieved using infected Sf9 cells at 1:1500 virus/cell ratios, and grown for 65 hours at 27° C. post-transfection.
(§5) The expression scale up for each protein was carried out in the Cellbag 50 L WAVE-Bioreactor System 20/50 from GE Healthcare Bioscience. 12 L of 2×10^6 cells/mL Sf9 cells (Expression System, Davis, Calif.) grown in ESF921 insect medium (Expression System) were infected with virus stock at 1:200 virus/cell ratios, and grown for 66-68 hours at 27° C. post-infection. The infected cell culture was harvested by centrifugation at 2000 rpm for 20 min 4° C. in a SORVALL® RC12BP centrifuge. The cell pellets were stored at −70° C. until purification.
(§6) Full length human DGKα and DGKζ, each expressed containing a TVMV-cleavable C-terminal Hexa-His tag sequence (SEQ ID NOs: 2 and 4, respectively) and produced as described above, were purified from Sf) baculovirus-infected insect cell paste. The cells were lysed using nitrogen cavitation method with a nitrogen bomb (Parr Instruments), and the lysates were clarified by centrifugation. […] The three steps column chromatography included nickel affinity resin capture (i.e. HisTrap FF crude, GE Healthcare), followed by size exclusion chromatography (i.e. HiLoad 26/600 Superdex 200 prep grade, GE Healthcare for DGK-alpha, and HiPrep 26/600 Sephacryl S 300_HR, GE Healthcare for DGK-zeta).

human DGKζ = human DGKζ (Homo sapiens (Human), UniProt Q13574); assay: DGKζ assay (detergent/lipid micelle substrate); type: biochemical; conditions: detergent/lipid micelle substrate; read-out: DGKζ IC50
human DGKζ, sequence (Q13574 other isoform, or with tags, fused parts or gaps): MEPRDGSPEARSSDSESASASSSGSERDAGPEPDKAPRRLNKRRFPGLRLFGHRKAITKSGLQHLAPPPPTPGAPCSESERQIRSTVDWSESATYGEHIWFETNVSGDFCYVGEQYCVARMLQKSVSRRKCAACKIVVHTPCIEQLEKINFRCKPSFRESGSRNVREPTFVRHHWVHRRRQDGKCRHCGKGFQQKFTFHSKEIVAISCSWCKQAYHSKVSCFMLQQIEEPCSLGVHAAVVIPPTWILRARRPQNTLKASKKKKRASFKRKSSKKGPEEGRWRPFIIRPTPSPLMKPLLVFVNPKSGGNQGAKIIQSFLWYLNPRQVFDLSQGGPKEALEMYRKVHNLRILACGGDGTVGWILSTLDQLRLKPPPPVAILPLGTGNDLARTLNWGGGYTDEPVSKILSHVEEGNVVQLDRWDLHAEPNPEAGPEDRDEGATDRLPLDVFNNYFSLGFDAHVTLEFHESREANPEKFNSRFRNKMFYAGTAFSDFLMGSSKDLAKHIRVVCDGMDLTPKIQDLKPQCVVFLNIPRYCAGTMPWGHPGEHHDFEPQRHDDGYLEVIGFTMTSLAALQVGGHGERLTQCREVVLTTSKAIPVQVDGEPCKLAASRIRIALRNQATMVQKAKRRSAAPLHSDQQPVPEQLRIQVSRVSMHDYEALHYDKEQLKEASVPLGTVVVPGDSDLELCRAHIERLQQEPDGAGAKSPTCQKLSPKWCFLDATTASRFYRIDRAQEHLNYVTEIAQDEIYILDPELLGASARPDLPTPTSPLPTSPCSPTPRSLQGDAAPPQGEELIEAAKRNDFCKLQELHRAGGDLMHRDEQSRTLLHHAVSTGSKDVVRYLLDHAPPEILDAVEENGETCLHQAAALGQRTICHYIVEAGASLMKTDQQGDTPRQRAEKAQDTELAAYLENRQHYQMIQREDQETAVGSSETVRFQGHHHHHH
Description: as §1, §2, §3, §4, §5, §6

[1] = test system: pre-activated CD4 T cells and Raji cells; assay: Raji CD4 T Cell IL2 Assay; type: cell-based

human DGKα, sequence (P23743 other isoform, or with tags, fused parts or gaps): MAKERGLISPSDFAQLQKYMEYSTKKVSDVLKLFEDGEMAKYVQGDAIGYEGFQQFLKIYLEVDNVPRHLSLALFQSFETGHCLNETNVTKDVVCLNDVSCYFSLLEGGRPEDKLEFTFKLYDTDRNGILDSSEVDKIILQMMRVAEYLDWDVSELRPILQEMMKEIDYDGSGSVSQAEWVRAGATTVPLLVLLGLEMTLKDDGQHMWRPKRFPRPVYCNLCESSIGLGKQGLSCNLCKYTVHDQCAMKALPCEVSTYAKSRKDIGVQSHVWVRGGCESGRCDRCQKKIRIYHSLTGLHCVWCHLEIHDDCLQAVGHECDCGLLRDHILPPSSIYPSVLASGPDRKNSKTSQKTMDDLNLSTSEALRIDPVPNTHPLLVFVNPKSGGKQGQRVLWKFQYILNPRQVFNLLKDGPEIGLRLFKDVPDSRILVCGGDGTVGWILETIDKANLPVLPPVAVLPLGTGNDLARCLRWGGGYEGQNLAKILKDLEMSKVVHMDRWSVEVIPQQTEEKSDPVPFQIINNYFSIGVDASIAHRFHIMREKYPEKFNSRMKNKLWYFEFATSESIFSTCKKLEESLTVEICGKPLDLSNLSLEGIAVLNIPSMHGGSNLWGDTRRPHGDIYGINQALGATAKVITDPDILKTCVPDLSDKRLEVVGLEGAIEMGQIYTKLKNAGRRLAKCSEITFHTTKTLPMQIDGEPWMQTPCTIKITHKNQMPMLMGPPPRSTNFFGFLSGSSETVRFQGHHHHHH

Compound	pIC50 (human DGKα)	pIC50 (human DGKζ)	pIC50 ([1]; Homo sapiens, Raji)	pIC50 [1]
Cn1c(=O)c(C#N)c(N2CCN(Cc3ccc(C(F)(F)F)c(F)c3)CC2)c2nc(Cl)ccc21 [Example 375, 6-chloro-4-(4-{[3-fluoro-4-(trifluoromethyl)phenyl]methyl}piperazin-1-yl)-1-methyl-2-oxo-1,2-dihydro-1,5-naphthylidine-3-carbonitrile]	5.80	< 3.62	< 4.00	
COCCn1c(=O)c([N+](=O)[O-])c(N2CCN(C(C)c3ccc(F)cc3)CC2)c2nc(C#N)ccc21 (single isomer, unassigned) [Example 150, 8-(4-(1-(4-fluorophenyl)ethyl)piperazin-1-yl)-5-(2-methoxyethyl)-7-nitro-6-oxo-5,6-dihydro-1,5-naphthyridine-2-carbonitrile]	4.14	4.06		6.29
COc1cccc(CN2CCN(c3c(C#N)c(=O)n(C)c4ccc(Br)nc34)CC2)c1O [Example 368, 6-bromo-4-{4-[(2-hydroxy-3-methoxyphenyl)methyl]piperazin-1-yl}-1-methyl-2-oxo-1,2-dihydro-1,5-naphthyridine-3-carbonitrile]	6.40	< 3.62	< 4.00	
Cn1c(=O)c(C#N)c(N2CCN(Cc3ccc(Br)cc3O)CC2)c2nc(Cl)ccc21 [Example 276, 4-{4-[(4-bromo-2-hydroxyphenyl)methyl]piperazin-1-yl}-6-chloro-1-methyl-2-oxo-1,2-dihydro-1,5-naphthyridine-3-carbonitrile]	7.92	< 3.62	7.10	
Cn1c(=O)c([N+](=O)[O-])c(N2CCN(C(c3ccc(F)cc3)c3ccc(F)cc3O)CC2)c2nc(C#N)ccc21 (stereo not drawn) [Example 122, 8-(4-((4-fluoro-2-hydroxyphenyl)(4-fluorophenyl)methyl)piperazin-1-yl)-5-methyl-7-nitro-6-oxo-5,6-dihydro-1,5-naphthyridine-2-carbonitrile]	6.00	6.14	7.96	
Cn1c(=O)c(C#N)c(N2CCN(Cc3cccc4nc[nH]c34)CC2)c2nc(Cl)ccc21 [Example 359, 4-{4-[(1H-1,3-benzodiazol-7-yl)methyl]piperazin-1-yl}-6-chloro-1-methyl-2-oxo-1,2-dihydro-1,5-naphthyridine-3-carbonitrile]	4.72	< 3.62	5.10	
Cn1c(=O)c(C#N)c(N2CCN(Cc3ccccc3O)CC2)c2nc(Cl)ccc21 [Example 198, 6-chloro-4-(4-(2-hydroxybenzyl)piperazin-1-yl)-1-methyl-2-oxo-1,2-dihydro-1,5-naphthyridine-3-carbonitrile]	7.13	3.82	6.30	
Cn1c(=O)c(C#N)c(N2CCN(CC(O)c3ccc(F)cc3)CC2)c2nc(Br)ccc21 (single isomer, unassigned) [Example 30, 6-bromo-4-{4-[2-(4-fluorophenyl)-2-hydroxyethyl]piperazin-1-yl}-1-methyl-2-oxo-1,2-dihydro-1,5-naphthyridine-3-carbonitrile]	5.74	3.85		5.96
Cc1cccc(OCc2cncc(C#N)c2)c1C(c1ccc(F)cc1)N1CCN(c2c([N+](=O)[O-])c(=O)n(C)c3ccc(Br)nc23)CC1 (single isomer, unassigned) [Example 89, 5-((2-((4-(6-bromo-1-methyl-3-nitro-2-oxo-1,2-dihydro-1,5-naphthyridin-4-yl)piperazin-1-yl)(4-fluorophenyl)methyl)-3-methylphenoxy)methyl)nicotinonitrile]	4.39	< 3.62		5.55
Cn1c(=O)c(C#N)c(N2CCN(Cc3cccc4c3NCC4)CC2)c2nc(Br)ccc21 [Example 299, 6-bromo-4-{4-[(2,3-dihydro-1H-indol-7-yl)methyl]piperazin-1-yl}-1-methyl-2-oxo-1,2-dihydro-1,5-naphthyridine-3-carbonitrile]	6.24	< 3.62	6.80	
Cn1c(=O)c(C#N)c(N2CCN(Cc3cc(F)cc(F)c3O)CC2)c2nc(Br)ccc21 [Example 320, 6-bromo-4-{4-[(3,5-difluoro-2-hydroxyphenyl)methyl]piperazin-1-yl}-1-methyl-2-oxo-1,2-dihydro-1,5-naphthyridine-3-carbonitrile]	6.05	< 3.62	6.52	
Cn1c(=O)c([N+](=O)[O-])c(N2CCN(C(c3ccccc3)c3ccccc3)CC2)c2nc(Br)ccc21 [Example 52, 4-(4-benzhydrylpiperazin-1-yl)-6-bromo-1-methyl-3-nitro-1,5-naphthyridin-2(1H)-one]	5.11	3.82	7.25	
COc1cc(F)ccc1C(c1ccc(F)cc1)N1CCN(c2c([N+](=O)[O-])c(=O)n(C)c3ccc(Br)nc23)CC1 (single isomer, unassigned) [Example 58, 6-bromo-4-(4-((4-fluoro-2-methoxyphenyl)(4-fluorophenyl)methyl)piperazin-1-yl)-1-methyl-3-nitro-1,5-naphthyridin-2(1H)-one]	6.60	4.72		7.55
C#CCOc1ccccc1C(c1ccc(F)cc1)N1CCN(c2c(C#N)c(=O)n(C)c3ccc(Br)nc23)CC1 (single isomer, unassigned) [Example 6, 6-bromo-4-{4-[(4-fluorophenyl) [2-(prop-2-yn-1-yloxy)phenyl]methyl]piperazin-1-yl}-1-methyl-2-oxo-1,2-dihydro-1,5-naphthyridine-3-carbonitrile]	5.19	< 3.62		6.09
Cn1c(=O)c(C#N)c(N2CCN(Cc3cc(Cl)ccc3O)CC2)c2nc(Br)ccc21 [Example 367, 6-bromo-4-{4-[(5-chloro-2-hydroxyphenyl)methyl]piperazin-1-yl}-1-methyl-2-oxo-1,2-dihydro-1,5-naphthyridine-3-carbonitrile]	6.66	< 3.62	< 4.00	
Cn1c(=O)c(C#N)c(N2CCN(Cc3ccc(Cl)cc3)CC2)c2nc(Cl)ccc21 [Example 417, 6-chloro-4-{4-[(4-chlorophenyl)methyl]piperazin-1-yl}-1-methyl-2-oxo-1,2-dihydro-1,5-naphthyridine-3-carbonitrile]	6.60	< 3.62	6.82	
COc1cccc(C)c1C(c1ccc(F)cc1)N1CCN(c2c([N+](=O)[O-])c(=O)n(C)c3ccc(Br)nc23)CC1 (single isomer, unassigned) [Example 61, 6-bromo-4-(4-((4-fluorophenyl)(2-methoxy-6-methylphenyl)methyl)piperazin-1-yl)-1-methyl-3-nitro-1,5-naphthyridin-2(1H)-one]	5.36	5.66		7.25
CC(=O)Nc1ccccc1CN1CCN(c2c(C#N)c(=O)n(C)c3ccc(Br)nc23)CC1 [Example 215, N-(2-((4-(6-bromo-3-cyano-1-methyl-2-oxo-1,2-dihydro-1,5-naphthyridin-4-yl)piperazin-1-yl)methyl)phenyl)acetamide]	5.39	< 4.09	6.32	
